# Read-outs that look alike come from different tables or passages of the source.
# What was measured:
# Assay type in all cases: in vitro ADME
# [1] = Liver microsome stability assay; settings: Mouse liver microsomes; read-out: T1/2 (min) Mouse
# [2] = tested on: Caco-2 cells; assay: Bidirectional permeability study in CACO-2 cells; settings: Caco-2 monolayer, 2.00 μM, 2 hours, pH 7.40
# Protocol: Caco-2 cells were inoculated onto polyethylene membrane (PET) in 96-well inserted plates at a rate of 1×10^5 cells/cm^2, and the medium was changed every 4 to 5 days until day 21 to 28, to form a fused cell monolayer. The transport buffer in the assay was HBSS and 10.0 mM HEPES, with a pH of 7.40±0.05. The test compounds were subjected to a bidirectional test at 2.00 μM in the presence and absence of GF120918 (10.0 μM). Digoxin was subjected to a bidirectional test at 10.0 μM in the presence and absence of GF120918 (10.0 μM), while Nadolol and Metoprolol were subjected to a test from direction A to direction B at 2.00 μM in the absence of GF120918 (10.0 μM). The above tests were performed in duplicate. The final concentration of DMSO was adjusted to be lower than 1%. The plate was incubated in a CO2 incubator at 37° C.±1° C. for 2 hours, and 5% CO2 was added under saturated humidity without shaking. All the samples, after being mixed with acetonitrile containing internal standard, were centrifuged at 3,200 g for 10 minutes. […] The concentrations of the test compounds and control compounds in the starting solution, the donor solution, and the acceptor solution were quantified by LC-MS/MS based on a peak area ratio of the analyte to the internal standard.
# After the transport assay, the integrity of the Caco-2 cell monolayer was determined using Lucifer Yellow Exclusion Assay.
# [3] = Liver microsome stability assay; settings: Rat liver microsomes; read-out: T1/2 (min) Rat
# [4] = Liver microsome stability assay; settings: dog; Canine liver microsomes; read-out: T1/2 (min) Canine
# [5] = Free plasma protein binding (PPB) assay, equilibrium dialysis; settings: dialysis 6 hours at 37° C.
# Protocol: The dried dialysis membrane was soaked in ultrapure water for 1 hour, then soaked in 20% ethanol for 20 minutes, and then rinsed with ultrapure water for 2 to 3 times. Finally, the dried dialysis membrane was soaked in ultrapure water for 20 minutes for later use. The frozen plasma was thawed in a water bath at 37° C. for about 20 minutes. pH value of the plasma was measured after thawing was complete, and was adjusted to 7.4 with 1% phosphoric acid solution or 0.1M sodium hydroxide solution. […] The pretreated dialysis membrane was assembled into the dialysis plate according to product instructions, and 100 μL of receiving solution (100 mM phosphate buffer solution plus 0.002% Tween 80) was added to one side of the permeable membrane in each dialysis well. 20 μL of each of the final solution of the test compound and the final solution of the control compound were taken in a 96-well sample plate, two duplicate samples were made, and T0 sample was obtained, which was stored in a −20° C. refrigerator. Another 100 μL of each of the above-mentioned final solutions were taken to the other side of the membrane in the dialysis device, two duplicate samples were made, and incubated at 37° C. with constant shaking for 6 hours. After 6 hours of incubation, 20 μL of each of the dialyzed receiving solution and the administered plasma were taken, two duplicate samples were made, and sample A and sample B were obtained. Corresponding blank plasma or receiving solution of corresponding volume were added to sample B and sample A, respectively, allowing the volume ratio of plasma to buffer in each sample well to be 1:1. 300 μL of sample-containing internal standard acetonitrile solution was added to all the sample wells. The mixture was mixed well, and centrifuged at 5,500×g for 10 minutes. 150 μL of corresponding ultrapure water was added to the corresponding sample wells of the 96-well sample plate. 150 μL of the supernatant was taken into the sample wells, and mixed well. Then, LC/MS/MS analysis was performed. The calculation formula of fu is: […]
# where: CR: peak area ratio measured in the receiving chamber well CD: peak area ratio measured in the supply chamber well.
# [6] = target: CYP2C8 (Homo sapiens (Human), UniProt P10632); assay: CYP inhibition assay in mixed human liver microsomes; settings: mixed (pooled) human liver microsomes, read-out: Inhibition rate % CYP2C8
# Sequence of CYP2C8 (P10632 whole entry): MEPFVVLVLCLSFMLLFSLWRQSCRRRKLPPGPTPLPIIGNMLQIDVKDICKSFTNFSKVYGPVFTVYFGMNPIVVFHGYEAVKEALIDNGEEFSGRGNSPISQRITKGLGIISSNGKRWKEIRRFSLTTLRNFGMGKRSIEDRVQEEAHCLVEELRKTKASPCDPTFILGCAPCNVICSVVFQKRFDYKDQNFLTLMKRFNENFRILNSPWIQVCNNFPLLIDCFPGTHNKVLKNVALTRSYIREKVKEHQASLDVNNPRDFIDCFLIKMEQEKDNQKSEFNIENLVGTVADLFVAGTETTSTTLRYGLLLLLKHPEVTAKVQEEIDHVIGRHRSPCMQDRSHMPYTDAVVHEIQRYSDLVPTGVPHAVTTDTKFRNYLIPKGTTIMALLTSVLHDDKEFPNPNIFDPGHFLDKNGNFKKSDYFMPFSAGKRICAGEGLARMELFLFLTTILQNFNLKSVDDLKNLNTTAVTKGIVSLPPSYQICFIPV
# Protocol: The inhibitory effects of the compounds on seven enzymes, i.e., CYP1A2, CYP2C9, CYP2C19, CYP2D6, CYP3A4 (midazolam), CYP2B6, and CYP2C8, were evaluated at a concentration of 10 μM. Mixed human liver microsomes, which were previously stored in a −80° C. refrigerator before use, were taken out and thawed in a water bath at 37° C. before use, and placed on ice for further operation. 100 μL of microsome working solution was taken, and added with 2 μL of test product or positive inhibitor working solution. 2 μL of solvent was added to the solvent control. The mixture was pre-incubated in a water bath at 37° C. for 10 minutes. After preincubation, 98 μL of NADPH regeneration solution was added to all samples to initiate the reaction. Then, the samples were put back into the water bath and incubated for a period of time. The reaction was quenched with 200 μL of stop solution. The plate was centrifuged at 3,220 g for 10 minutes, 100 μL of supernatant was transferred, and 100 μL of water was added and mixed well to the assay plate for LC/MS/MS analysis.
structure (smiles),measurement,setting,value
"CCCCOC(=O)NS(=O)(=O)c1sc(CC(C)C)cc1-c1ccc(Cn2ccnc2)cc1 [Control Compound I, reference compound]",half-life at 1 μM,[1],49.1 min
same,Papp mean value (10^−6 cm/s) A to B,[2],0.381 10^−6 cm/s
same,half-life at 1 μM,[3],22.6 min
same,half-life at 1 μM,[4],224 min
same,"fraction unbound at 6 h, 1 μM","[5]; dog, pH 7.4, Canine plasma, read-out: fu % Canine",0.0023
same,"fraction unbound at 6 h, 1 μM","[5]; pH 7.4, Human plasma, read-out: fu % Human",0.0006
same,"fraction unbound at 6 h, 1 μM","[5]; pH 7.4, Mouse plasma, read-out: fu % Mouse",0.0009
same,"fraction unbound at 6 h, 1 μM","[5]; pH 7.4, Rat plasma, read-out: fu % Rat",0.0005
same,inhibition at 10 µM,[6],97.5%
